This is an account of results in patent US6540995B1, “Encapsulated cells producing cytochrome P450” (priority 1996, dated 2003).

For data set [1] the following is noted: after administration of the drug to patients (Wright et al. 1995); cited from earlier work.
Data set [2] relates to breast cancer cells transfected with the CYP2B1 gene. The following applies: another study; cited from earlier work.
Data set [3] has the same test system. The following applies: another study; cited from earlier work. The source holds these as a separate data set.

Description for CYP2B1 expressing cells: After five additional days the cells were trypsinised and an aliquot mixed with the same amount of 0.4% Giemsa in PBS, incubated for 1 min and the living cells counted.

Take `O=P1(NCCCl)OCCCN1CCCl` (stereo not shown) [ifosfamide]: the plasma drug concentrations in data set [1] was 100 to 500 µM.

With `O=P1(N(CCCl)CCCl)NCCCO1` (stereo not shown) [cyclophosphamide], in the data set with CYP2B1 expressing cells, the “sensitivity of CYP2B1 expressing cells compared with cells not expressing CYP2B1” value is recorded as “tenfold higher sensitivity”. Also, the “effect on CYP2B1 transfected breast cancer cells” value in data set [2] is “cell killing”. Moreover, the “effect on tumours after implantation in nude mice” value in data set [3] is recorded as “tumour regression”.
